Test results published in patent US6392049B1, “Process for preparing 2,4-dihydroxypyridine and 2,4-dihydroxy-3-nitropyridine” (Aventis Pharmaceuticals Inc., priority 1996, dated 2002).
Where two headings read alike, the source gives them in different places.

Legend:
[1] = test system: normotensive anesthetized rat; experiment: Mean arterial blood pressure and heart rate in normotensive anesthetized rat; assay type: in vivo; details: for Anesthetized Rat HR/ED25: intravenous dose lowering heart rate by 25%; for Anesthetized Rat MAP/ED25: intravenous dose lowering mean arterial pressure by 25%
Protocol: Normotensive rats are anesthetized with sodium pentobarbital (50 mg/kg, i.p.) and placed on a heated surgical table. Cannulas are inserted into the femoral artery and veined to allow the measurement of arterial pressure and to facilitate the intravenous administration of test compounds. The animals are allowed to equilibrate for 10 minutes after surgery. Mean arterial pressure is continuously measured and recorded and heart rate is monitored using the arterial pressure pulse to trigger a cardiotachometer. After baseline parameters are established and recorded, increasing doses (1, 3, 10, 30, 100, 300 and 1000 μg/kg) of the compound of Formula I to be tested are administered intravenously. Maximal changes in the cardiovascular parameters are observed after each dose of the adenosine agonist. Only one compound is administered per rat.

[2] = test system: swine coronary arteries; experiment: In vitro vasorelaxation in isolated swine coronary arteries; assay type: cell-based
Protocol: Swine coronary arteries are obtained from a local slaughter house, dissected carefully and cleaned of fat, blood and adhering tissue. Rings approximately 2-3 mm wide are cut and transferred to water-jacketed tissue baths (10 mL) filled with warm (37° C.), oxygenated (O2/CO2:95%/5%) Krebs-Henseleit buffer and mounted on L-shaped hooks between stainless steel rods and a force transducer. […] PGF2a, before being exposed to 3 μM PGF2a.

[3] = target: T1, A2 receptor (Rattus norvegicus, UniProt P30543); experiment: A2 adenosine receptor binding, displacement of 3H-CGS 21680, rat brain striatum membranes
T1 construct: using membranes from rat brain striatum; from tissue; host or cells: rat brain striatum membranes
Protocol: Non-specific binding is assessed in the presence of 20 μm 2-chloroadenosine.
(§1) The assays are run in glass test tubes in duplicate at 25° C. Once the membranes are added, the tubes are vortexed and incubated at 25° C. for 60 minutes (A1 assay) or 90 minutes (A2 assay) on a rotary shaker. The assay tubes are vortexed halfway through the incubation and again near the end. The assays are terminated by rapid filtration through 2.4 cm GF/B filters using a Brandel Cell Harvestor. The test tubes are washed three times with cold 50 mM tris-HCl (pH 7.7 or 7.4), with filtration being completed within 15 seconds. The damp filter circles are placed in glass scintillation vials filled with 10 ml of Aquasol II (New England Nuclear). The vials are allowed to shake overnight on a rotary shaker and are placed into a liquid scintillation analyzer for two minute counts. IC50 values for receptor binding, i.e. the concentration at which a compound of Formula I displaced the radiolabeled standard, are obtained using a curve-fitting computer program (RS/1, Bolt, Beranek and Newman, Boston, Mass.).

[4] = target: T2, A1 receptor (Rattus norvegicus, UniProt P25099); experiment: A1 adenosine receptor binding, displacement of 3H-CHA, whole rat brain membranes; details: 3H-CHA displacement, 25° C., 60 minutes
T2 construct: using a membrane preparation of whole rat brain; from tissue; host or cells: whole rat brain membranes
T2 sequence (P25099 1-326): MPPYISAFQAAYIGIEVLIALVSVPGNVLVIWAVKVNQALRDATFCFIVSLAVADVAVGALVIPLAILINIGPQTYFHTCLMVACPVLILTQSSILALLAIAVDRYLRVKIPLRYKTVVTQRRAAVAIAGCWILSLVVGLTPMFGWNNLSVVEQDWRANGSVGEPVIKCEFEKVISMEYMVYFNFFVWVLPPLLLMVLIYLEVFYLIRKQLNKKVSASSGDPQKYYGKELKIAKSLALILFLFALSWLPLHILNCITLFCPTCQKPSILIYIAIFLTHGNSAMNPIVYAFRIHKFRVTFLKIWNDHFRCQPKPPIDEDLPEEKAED
Protocol: Non-specific binding is assessed in the presence of 1 mM theophylline.
as §1

[5] = test system: rat adipocytes; experiment: Antilipolytic activity in rat adipocytes (in vitro lipolysis assay, glycerol production); assay type: cell-based; details: for EC50: read-out: EC50 (50% inhibition of glycerol production); for inhibition at 1 µM: read-out: % Inhibition of glycerol production, 1 μM
Protocol: Adipose tissue is removed from anesthetized rats and rinsed twice in incubation medium (2.09 g sodium bicarbonate and 0.04 g EDTA, disodium salt, in 1 L Krebs buffer). Each rat (300-350g) yields approximately 4 ml of adipose tissue. The adipose tissue (35 mL) is cut into small pieces with scissors and washed with incubation medium (50 mL). The mixture is poured into the barrel of a 50 mL syringe to which is attached a short piece of clamped tubing instead of a needle. The aqueous phase is allowed to drain. A second wash with incubation medium is passed through the syringe. The tissue is added to 50 mL of collagenase solution (collagenase (90 mg), bovine serum albumin (BSA) (500 mg), and 0.1 M calcium chloride solution (1 mL), in incubation medium (50 mL)) in a 1 L bottle. The mixture is shaken in an environmental at 37 ° C. for about 60 minutes under an atmosphere of 95% oxygen/5% carbon dioxide to effect digestion of the tissue. The dispersed cells are poured through 2 layers of cheese cloth into a 100 mL plastic beaker. The undigested clumps in the cloth are rinsed once with incubation medium (20 mL). The cells in the beaker are centrifuged in 2 plastic tubes for 30 seconds at room temperature at 300 rpm. The aqueous phase is aspirated from beneath the loosely packed layer of floating fat cells and discarded. The adipocytes are gently poured into a 250 mL plastic beaker containing 100 mL of rinse solution (1 g BSA per 100 mL incubation medium). After gentle stirring the centrifugation step is repeated. Another wash with rinse solution follows. The cells are pooled and their volume is estimated with a graduated cylinder. The adipocytes are diluted in twice their volume of assay buffer (incubation medium (120 mL), BSA (1.2 g), pyruvic acid (13 mg)).
The assay is performed in 20 mL plastic scintillation vials and the total assay volume is 4.2 ml. Assay buffer (2.5 mL), diluted adipocytes (1.5 mL), and a solution of the compound to be tested (12.3 μL) adenosine agonist (12.3 μL; varying concentration) is incubated in the environmental shaker for 15 minutes, then the reaction is started with norepinephrine solution (41.2 μL) (10 nM, in a carrier solution containing water (100 mL), BSA (4 mg), and 0.1 M EDTA (20 μL))and adenosine deaminase (1 μg/ml, 41.2 μL). After sixty minutes in the shaker the reaction is terminated by putting the vials on ice. […] The hard lipid layer is removed by aspiration and the aqueous layer is assayed for glycerol (400 μL of sample). The positive control is done in the absence of any adenosine agonist, substituting water in place of the solution to be tested.

[6] = Sus scrofa, read-out: Vasorelaxation in Swine Coronary Artery/IC50 (μM)
[7] = 3H-CGS 21680 displacement, rat brain striatum membranes, 25° C., 90 minutes, read-out: Adenosine Receptor Binding Activity/IC50 (nM) A2
[8] = Adipocyte, rat adipocytes, norepinephrine-stimulated
[9] = Sus scrofa, read-out: Vasorelaxation (IC50)
[10] = 50% reduction in tension of rings contracted with 3 μM PGF2a, read-out: Vasorelaxation in Swine Coronary Artery/IC50

T1 sequence (P30543 whole entry): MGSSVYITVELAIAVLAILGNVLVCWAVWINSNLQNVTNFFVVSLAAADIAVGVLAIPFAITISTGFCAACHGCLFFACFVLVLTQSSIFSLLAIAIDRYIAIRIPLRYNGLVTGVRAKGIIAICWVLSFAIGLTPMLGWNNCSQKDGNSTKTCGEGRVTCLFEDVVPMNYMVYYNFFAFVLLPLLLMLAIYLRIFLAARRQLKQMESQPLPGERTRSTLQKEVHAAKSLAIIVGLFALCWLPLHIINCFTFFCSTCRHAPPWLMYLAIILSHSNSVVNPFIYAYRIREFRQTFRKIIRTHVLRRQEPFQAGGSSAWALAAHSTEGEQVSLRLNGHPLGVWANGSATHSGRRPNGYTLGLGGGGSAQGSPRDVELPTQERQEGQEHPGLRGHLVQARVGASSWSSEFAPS

SMILES | Anesthetized Rat HR/ED25 [1] [µg/kg] | Anesthetized Rat MAP/ED25 [1] [µg/kg] | IC50 [3, 7] [nM] | IC50 [4] [nM] | IC50 [2, 10] [µM] | also measured
CCNC(=O)[C@H]1C[C@@H](n2cnc3c(NCCc4cccs4)ccnc32)[C@H](O)[C@@H]1O (racemic) [Example 30, (±)-N6-[1-(thiopheny-2-yl)ethan-2-yl]-N′-1-deazaaristeromycin-5′-N-ethyl carboxamide] | >10 | 6 | > 1000 | 562 | – | IC50 [2, 6]: 12.1 µM
OC[C@H]1O[C@@H](n2cnc3c(N[C@@H]4CCCC[C@H]4c4cccs4)ncnc32)[C@H](O)[C@@H]1O (relative stereo) [Example 7, N^6-[trans-2-(thiophen-2-yl)-cyclohex-1-yl]adenosine] | 18 | 6 | 28 | 3.5 | – | IC50 [2, 6]: 4 µM
OC[C@H]1O[C@@H](n2cnc3c(N[C@@H]4CC=CC[C@H]4c4ccsc4)ncnc32)[C@H](O)[C@@H]1O (relative stereo) [Example 8, N^6-[trans-2-(thiophen-3-yl)-cyclohex-4-en-1-yl]adenosine] | 23 | 10 | 138 | 5 | – | –
CCNC(=O)[C@H]1C[C@@H](n2cnc3c(NCCc4scnc4C)ncnc32)[C@H](O)[C@@H]1O (relative stereo) [Example 24, (±)-N^6-[2-(4″-methyl-5″-thiazolyl)ethyl]carbocydic adenosine-5′-N-ethyl carboxamide] | >10 | 6 | > 1000 | > 1000 | – | –
CO[C@@H]1[C@H](O)[C@@H](CO)O[C@H]1n1cnc2c(N[C@@H]3CC=CC[C@H]3c3cccs3)ncnc21 (relative stereo) [Example 49, N^6-[trans-5-(2-thienyl)cyclohex-1-en-4-yl]-2′-O-methyladenosine] | – | – | 2880 | 69 | – | EC50 [5, 8]: 18.6 nM; IC50 [2, 6]: 9.81 µM
CCNC(=O)[C@H]1O[C@@H](n2cnc3c(N)nc(NCCc4ccc(CCC(=O)O)cc4)nc32)[C@H](O)[C@@H]1O [CGS21680, 2-[[2-[4-[2-carboxethyl)phenyl]ethyl]amino]-N-ethylcarboxamidoadenosine] | – | – | – | – | – | inhibition at 1 µM ([5]; Rattus norvegicus, Adipocyte): 0%; antilipolytic activity ([5]; statement in words): do not exhibit antilipolytic activity; IC50 [2, 9]: 0.08 µM
OC[C@H]1O[C@@H](n2cnc3c(NC4CCCC4)ncnc32)[C@H](O)[C@@H]1O [CPA, N-cyclopentyladenosine] | – | – | – | – | – | inhibition at 0.1 µM ([5]; Rattus norvegicus, Adipocyte, read-out: % Inhibition of glycerol production, 0.1 μM): 97%; inhibition at 1 µM ([5]; Rattus norvegicus, Adipocyte): 100%; EC50 ([5]; Rattus norvegicus, Adipocyte): 0.31 nM; IC50 [2, 9]: 3.18 µM; IC50 [3]: 1580 nM
OC[C@H]1O[C@@H](n2cnc3c(NCCNc4nc5ccccc5s4)ncnc32)[C@H](O)[C@@H]1O [Example 9, N^6-[2-(2′-aminobenzothia-zolyl)ethyl]adenosine] | 4 | 5 | 1000 | 4 | 11.9 | –
Cc1ncsc1CCNc1ncnc2c1ncn2[C@@H]1O[C@H](CO)[C@@H](O)[C@H]1O [Example 12, N^6-[2-(4′-methylthiazol-5′-yl)-ethyl]adenosine] | 17 | 4 | 224 | 23 | 0.5 | –
OC[C@H]1O[C@@H](n2cnc3c(NCCc4nccs4)ncnc32)[C@H](O)[C@@H]1O [Example 13, N^6-[2-(2′-thiazolyl)ethyl]-adenosine] | >10 | 3 | 191 | 41 | 0.24 | –
C[C@H](Cc1cc2ccccc2s1)Nc1ncnc2c1ncn2[C@@H]1O[C@H](CO)[C@@H](O)[C@H]1O [Example 15, N^6-[(R)-1-methyl-2-(2′benzo-[b]-thiophenyl)ethyl]adenosine] | 1.4 | 1.5 | – | 4.07 | – | IC50 [2, 6]: 2.45 µM
Cc1csc(CNc2ncnc3c2ncn3[C@@H]2O[C@H](CO)[C@@H](O)[C@H]2O)n1 [Example 18, N^6-[2-(4′-methyl-2′-thiazolyl)-methyl]adenosine] | >10 | 2 | 52 | 166 | 0.46 | –
CCNC(=O)[C@H]1O[C@@H](n2cnc3c(NCCNc4nc5ccccc5s4)ncnc32)[C@H](O)[C@@H]1O [Example 23] | 7 | 6 | 891 | 0.32 | 4.4 | –
CO[C@@H]1[C@H](O)[C@@H](CO)O[C@H]1n1cnc2c(N[C@H](C)Cc3ccc(Cl)s3)ncnc21 [Example 48, N^6-[2-(5-chloro-2-thienyl)-(1R)-1-methylethyl]-2′-O-methyladenosine] | – | – | 1440 | 8.35 | – | EC50 [5, 8]: 1.86 nM
CCNC(=O)[C@H]1O[C@@H](n2cnc3c(N)ncnc32)[C@H](O)[C@@H]1O [NECA, N-ethylcarboxamido-adenosine] | – | – | – | – | – | EC50 ([5]; Rattus norvegicus, Adipocyte): 2.5 nM
C[C@H](Cc1ccccc1)Nc1ncnc2c1ncn2[C@@H]1O[C@H](CO)[C@@H](O)[C@H]1O [R-PIA, R-phenylisopropyladenosine, reference compound] | – | – | – | – | – | EC50 ([5]; rat adipocytes, norepinephrine-stimulated): 1 nM; IC50 ([2]; literature compounds, Table V, methods as above, unit inferred, read-out: Vasorelaxation (IC50)): 0.76 µM
